Structures can show the parent of a compound that is named as a salt.
Tests used:
[1] = Acute toxicity, LD50 in mice (Test Example 3); design: species or system mice (ddY strain, 4-week old); conditions: mouse, in vivo, ip; ddY male mice, intraperitoneal, mortality over 7 consecutive days; 5% gum arabic in saline
Procedure: Compound I sodium salt and the control drug of dianemycin sodium salt were respectively suspended in a 5% solution of gum arabic in saline solution.
Two groups of 7 ddY strain male mice (4-week old) were intraperitoneally injected with each of the above-described drug suspension. LD50 values (mg/kg) of the compounds were determined from the total mortality per group for 7 consecutive days to examine the acute toxicity.

[2] = tested on: toxoplasma RH strain; test: Anti-toxoplasma effect in cultivated mouse macrophage (Test Example 1); type: cell-based, in macrophage of normal ICR mice; conditions: 0.1 ppm compound in medium, 37° C., 48 hours
Procedure: (§1) Normal ICR mice were intraperitoneally injected with 1 ml of a sterilized 0.2% solution of glycogen in saline solution and, after 5 days, intraperitoneally injected with 5 ml of a Hank's solution containing heparin to collect macrophage.
(§2) After centrifugation and washing, the macrophage was diluted with a medium of TC-199 containing 20% of calf serum so that the resulting solution contained about 10^6 cells/ml of macrophage. 1 ml of this suspension was pipetted into a cultivation Petri dish containing circular cover glass of 1.5 cm in diameter, followed by cultivation for 24 hours in an incubator containing 5% of carbon dioxide.
(§3) 5×10^5 toxiplasma RH strain collected on the 2nd day after intraperitoneal infection of mice were brought into contact with the thus cultivated macrophage at 37° C. for about 1 hour, and non-infectingtoxiplasma RH strain were washed away using the same medium followed by adding thereto the same medium.
(§4) A drug-containing group was prepared by adding compound I sodium salt to the medium so that the final concentration of the compound became 0.1 ppm.
(§5) Medical effects were evaluated as follows; After cultivation at 37° C. for 48 hours, May-Grunwald/Giemsa double straining was conducted to determine the percentage of macrophage cells containing therein 1 to 5 toxoplasma or 6 or more toxoplasma, thus the infected control group was compared with the drug-added group.

[3] = tested on: macrophage; test: Cytotoxic effect on macrophage, observation under an optical microscope; type: cell-based, ICR mice; conditions: 0.1 ppm compound in medium
Procedure: as §1, §2, §3, §4, §5

[4] = tested on: Staphylococcus epidermidis IID 866; test: MIC, antibacterial effects (Test Example 2); type: cell-based; conditions: IID866, infusion agar medium, read-out: MIC (Minimum Inhibitory Concentration)
Procedure: (§6) MIC (Minimum Inhibitory Concentration) was measured according to the method specified by the Chemotherapeutic Society using a heat infusion agar medium containing compound I sodium salt, to examine antibacterial effects of the compound.

[5] = tested on: Staphylococcus aureus FDA 209 P; test: MIC, antibacterial effects (Test Example 2); type: cell-based; conditions: FDA209, infusion agar medium, read-out: MIC (Minimum Inhibitory Concentration)
Procedure: as §6

[6] = tested on: Streptococcus faecalis ATCC 8043; test: MIC, antibacterial effects (Test Example 2); type: cell-based; conditions: Enterococcus faecalis, ATCC8043, infusion agar medium, read-out: MIC (Minimum Inhibitory Concentration)
Procedure: as §6

[7] = tested on: Bacillus subtilis ATCC 6633; test: MIC, antibacterial effects (Test Example 2); type: cell-based; conditions: ATCC6633, infusion agar medium, read-out: MIC (Minimum Inhibitory Concentration)
Procedure: as §6

[8] = tested on: Staphylococcus aureus Smith; test: MIC, antibacterial effects (Test Example 2); type: cell-based; conditions: infusion agar medium, read-out: MIC (Minimum Inhibitory Concentration)
Procedure: as §6

[9] = tested on: Staphylococcus aureus TPR-23; test: MIC, antibacterial effects (Test Example 2); type: cell-based; conditions: TPR23, infusion agar medium, read-out: MIC (Minimum Inhibitory Concentration)
Procedure: as §6

[10] = tested on: Escherichia coli NIHJ C-2; test: MIC, antibacterial effects (Test Example 2); type: cell-based; conditions: NIHJC2, infusion agar medium, read-out: MIC (Minimum Inhibitory Concentration)
Procedure: as §6

[11] = tested on: Staphylococcus epidermidis TPR-25; test: MIC, antibacterial effects (Test Example 2); type: cell-based; conditions: TPR25, infusion agar medium, read-out: MIC (Minimum Inhibitory Concentration)
Procedure: as §6

[12] = tested on: Bacillus licheniformis; test: MIC, antibacterial effects (Test Example 2); type: cell-based; conditions: infusion agar medium, read-out: MIC (Minimum Inhibitory Concentration)
Procedure: as §6

Compound | LD50 at 168 h [1] [mg/kg] | Percentage of Toxoplasma-infected Macrophage, 1 to 5 Toxoplasma/cell ([2]; infected control group 30.8) [%] | Percentage of Toxoplasma-infected Macrophage, 6 or more Toxoplasma/cell ([2]; infected control group 31.8) [%] | cytotoxic effect [3] | MIC [4] [µg/mL] | MIC [5] [µg/mL] | MIC [6] [µg/mL] | MIC [7] [µg/mL] | MIC [8] [µg/mL] | MIC [9] [µg/mL] | MIC [10] [µg/mL] | MIC [11] [µg/mL] | MIC [12] [µg/mL]
C/C(=C\C(C)C1OC2(CCC(C)(C3CC(O)C(C)C4(OC(C5OC(O)(CO)C(C)CC5C)CC4C)O3)O2)CC(O)C1C)C(=O)C(C)CC(C)C(=O)O (centres unmarked) [Compound I sodium salt] | 191 | 0 | 0 | no cytotoxic effect | 50 | 25 | 50 | 25 | 50 | 50 | > 200 | 50 | 12.5
COC1CCC(OC2CC(C3(C)CCC4(CC(O)C(C)C(C(C)/C=C(\C)C(=O)C(C)CC(C)C(=O)O)O4)O3)OC3(OC(C4OC(O)(CO)C(C)CC4C)CC3C)C2C)OC1C (centres unmarked) [Dianemycin Sodium Salt, reference compound] | 7.2 |  |  |  |  |  |  |  |  |  |  |  | 

Source: patent US4366311A, “Novel dianemycin derivative” (Taisho Pharmaceutical Co., Ltd., priority 1980, dated 1982)
